Measured values taken from patent publication US8604061B2, “2-aminooxazolines as TAAR1 ligands” (Hoffmann-La Roche Inc., priority 2007, dated 2013).

The molecules below were run against TAAR1 (Mus musculus, UniProt Q923Y8) (assay: TAAR1 radioligand binding, membranes of stably transfected HEK293 cells (mouse)). Conditions: not given.
How it was run: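 Competition binding on membranes from HEK293 cells stably expressing the TAAR1 species ortholog, in HEPES-NaOH pH 7.0 with 10 mM MgCl2 and 2 mM CaCl2, 30 min at 4° C with [3H]-rac-2-(1,2,3,4-tetrahydro-1-naphthyl)-2-imidazoline. Competitors 10 pM–30 μM, duplicates; non-specific binding with 10 μM unlabelled ligand; filtration and scintillation counting.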

| Structure (SMILES) | Ki |
| --- | --- |
| NC1=N[C@@H](c2ccc(Cl)c(F)c2)CO1 [Example 174, (S)-4-(4-Chloro-3-fluoro-phenyl)-4,5-dihydro-oxazol-2-ylamine] | 0.0006 µM |

Same assay, conditions: mouse/rat; cell not marked 'rat'; radioligand [3H]-rac-2-(1,2,3,4-tetrahydro-1-naphthyl)-2-imidazoline, 4° C.; read-out: Ki (μM) mouse/rat

| Structure (SMILES) | Ki |
| --- | --- |
| NC1=N[C@@H](CCc2cc(F)cc(C(F)(F)F)c2)CO1 [Example 159, (S)-4-[2-(3-Fluoro-5-trifluoromethyl-phenyl)-ethyl]-4,5-dihydro-oxazol-2-ylamine] | 0.001 µM |
| NC1=N[C@@H](CCc2cc(C(F)(F)F)ccc2C(F)(F)F)CO1 [Example 160, (S)-4-[2-(2,5-Bis-trifluoromethyl-phenyl)-ethyl]-4,5-dihydro-oxazol-2-ylamine] | 0.0028 µM |
| Cc1ccc([C@@]2(C)COC(N)=N2)cc1 [Example 161, (S)-4-Methyl-4-p-tolyl-4,5-dihydro-oxazol-2-ylamine] | 0.0062 µM |
| CCC(C[C@H]1COC(N)=N1)c1ccc(Cl)cc1 (stereo partly drawn) [Example 162, (S)-4-[2-(4-Chloro-phenyl)-butyl]-4,5-dihydro-oxazol-2-ylamine] | 0.0025 µM |
| CCC(C[C@H]1COC(N)=N1)c1ccccc1 (stereo partly drawn) [Example 163, (S)-4-(2-Phenyl-butyl)-4,5-dihydro-oxazol-2-ylamine] | 0.0037 µM |
| CC(C[C@H]1COC(N)=N1)c1ccc(C(F)(F)F)cc1 (stereo partly drawn) [Example 165, (S)-4-[2-(4-Trifluoromethyl-phenyl)-propyl]-4,5-dihydro-oxazol-2-ylamine] | 0.0012 µM |
| NC1=N[C@@H](c2ccc(F)c(F)c2)CO1 [Example 166, (S)-4-(3,4-Difluoro-phenyl)-4,5-dihydro-oxazol-2-ylamine] | 0.0047 µM |
| NC1=N[C@@H](c2cccc(Cl)c2Cl)CO1 [Example 168, (S)-4-(2,3-Dichloro-phenyl)-4,5-dihydro-oxazol-2-ylamine] | 0.0006 µM |
| NC1=N[C@@H](c2ccc(Cl)cc2)CO1 [Example 169, (S)-4-(4-Chloro-phenyl)-4,5-dihydro-oxazol-2-ylamine] | 0.0014 µM |
| NC1=N[C@@H](c2cc(F)c(F)c(F)c2)CO1 [Example 170, (S)-4-(3,4,5-Trifluoro-phenyl)-4,5-dihydro-oxazol-2-ylamine] | 0.0011 µM |
| NC1=N[C@@H](c2ccc(F)c(Cl)c2)CO1 [Example 172, (S)-4-(3-chloro-4-fluoro-phenyl)-4,5-dihydro-oxazol-2-ylamine] | 0.0019 µM |
| NC1=N[C@@H](c2cc(F)cc(F)c2)CO1 [Example 176, (S)-4-(3,5-Difluoro-phenyl)-4,5-dihydro-oxazol-2-ylamine] | 0.002 µM |
| NC1=N[C@@H](c2cc(F)cc(Cl)c2)CO1 [Example 178, (S)-4-(3-Chloro-5-fluoro-phenyl)-4,5-dihydro-oxazol-2-ylamine] | 0.0004 µM |
| C[C@]1(c2ccccc2Cl)COC(N)=N1 [Example 180, (S)-4-(2-Chloro-phenyl)-4-methyl-4,5-dihydro-oxazol-2-ylamine] | 0.0088 µM |
| CCC(C[C@H]1COC(N)=N1)c1ccc(C(F)(F)F)cc1 (stereo partly drawn) [Example 184, (S)-4-[2-(4-Trifluoromethyl-phenyl)-butyl]-4,5-dihydro-oxazol-2-ylamine] | 0.0063 µM |
| C[C@]1(c2cc(F)ccc2F)COC(N)=N1 [Example 187, (S)-4-(2,5-Difluoro-phenyl)-4-methyl-4,5-dihydro-oxazol-2-ylamine] | 0.0021 µM |
| NC1=N[C@@H](c2cc(Cl)ccc2F)CO1 [Example 190, (+)-(S)-4-(5-Chloro-2-fluoro-phenyl)-4,5-dihydro-oxazol-2-ylamine] | 0.0008 µM |
| NC1=N[C@@H](c2cccc(Cl)c2)CO1 [Example 192, (+)-(S)-4-(3-Chloro-phenyl)-4,5-dihydro-oxazol-2-ylamine] | 0.0019 µM |
| CC(C[C@H]1COC(N)=N1)c1cccc(C(F)(F)F)c1 (stereo partly drawn) [Example 193, (S)-4-[2-(3-Trifluoromethyl-phenyl)-propyl]-4,5-dihydro-oxazol-2-ylamine] | 0.0043 µM |
| CCC(C[C@H]1COC(N)=N1)c1cccc(C(F)(F)F)c1 (stereo partly drawn) [Example 194, (S)-4-[2-(3-Trifluoromethyl-phenyl)-butyl]-4,5-dihydro-oxazol-2-ylamine] | 0.0073 µM |
| NC1=N[C@@H](CSc2ccccc2)CO1 [Example 195, (R)-4-Phenylsulfanylmethyl-4,5-dihydro-oxazol-2-ylamine] | 0.0018 µM |
| C[C@@]1(c2ccccc2F)COC(N)=N1 [Example 196, (R)-4-(2-Fluoro-phenyl)-4-methyl-4,5-dihydro-oxazol-2-ylamine] | 0.0066 µM |
| NC1=N[C@@H](c2cccc(Br)c2)CO1 [Example 198, (+)-(S)-4-(3-Bromo-phenyl)-4,5-dihydro-oxazol-2-ylamine] | 0.002 µM |
| NC1=N[C@@H](c2cc(Cl)cc(Cl)c2)CO1 [Example 201, (+)-(S)-4-(3,5-Dichloro-phenyl)-4,5-dihydro-oxazol-2-ylamine] | 0.0002 µM |
| CC(C[C@H]1COC(N)=N1)c1cc(F)cc(F)c1 (stereo partly drawn) [Example 202, (S)-4-[2-(3,5-Difluoro-phenyl)-propyl]-4,5-dihydro-oxazol-2-ylamine] | 0.0017 µM |

| Structure (SMILES) | Ki |
| --- | --- |
| CCC(C[C@H]1COC(N)=N1)c1cc(F)cc(F)c1 (stereo partly drawn) [Example 203, (S)-4-[2-(3,5-Difluoro-phenyl)-butyl]-4,5-dihydro-oxazol-2-ylamine] | 0.0039 µM |
| C[C@]1(c2ccc(F)cc2F)COC(N)=N1 [Example 206, (S)-4-(2,4-Difluoro-phenyl)-4-methyl-4,5-dihydro-oxazol-2-ylamine] | 0.0032 µM |
| CCC(C[C@H]1COC(N)=N1)c1ccc(F)cc1 (stereo partly drawn) [Example 210, (S)-4-[2-(4-Fluoro-phenyl)-butyl]-4,5-dihydro-oxazol-2-ylamine] | 0.0014 µM |
| CCC(C[C@H]1COC(N)=N1)c1ccc(F)c(F)c1 (stereo partly drawn) [Example 211, (S)-4-[2-(3,4-Difluoro-phenyl)-butyl]-4,5-dihydro-oxazol-2-ylamine] | 0.0024 µM |
| NC1=N[C@@H](CCc2cccc(C(F)(F)F)n2)CO1 [Example 212, (S)-4-[2-(6-Trifluoromethyl-pyridin-2-yl)-ethyl]-4,5-dihydro-oxazol-2-ylamine] | 0.0068 µM |
| NC1=N[C@@H](COc2ccc(F)cc2)CO1 [Example 213, (S)-4-(4-Fluoro-phenoxymethyl)-4,5-dihydro-oxazol-2-ylamine] | 0.003 µM |
| C[C@]1(c2ccc(C(F)(F)F)cc2F)COC(N)=N1 [Example 215, (S)-4-(2-Fluoro-4-trifluoromethyl-phenyl)-4-methyl-4,5-dihydro-oxazol-2-ylamine] | 0.0024 µM |
| NC1=N[C@@H](COc2ccc(Cl)cc2)CO1 [Example 216, (S)-4-(4-Chloro-phenoxymethyl)-4,5-dihydro-oxazol-2-ylamine] | 0.002 µM |
| CC(C[C@H]1COC(N)=N1)c1ccccc1F (stereo partly drawn) [Example 217, (S)-4-[2-(2-Fluoro-phenyl)-propyl]-4,5-dihydro-oxazol-2-ylamine] | 0.0015 µM |
| C[C@]1(c2cccc(C(F)(F)F)c2)COC(N)=N1 [Example 219, (S)-4-Methyl-4-(3-trifluoromethyl-phenyl)-4,5-dihydro-oxazol-2-ylamine] | 0.0009 µM |
| Cc1cc(CC[C@H]2COC(N)=N2)ccn1 [Example 220, (S)-4-[2-(2-Methyl-pyridin-4-yl)-ethyl]-4,5-dihydro-oxazol-2-ylamine] | 0.0084 µM |
| CC(C[C@H]1COC(N)=N1)c1ccc(Cl)c(Cl)c1 (stereo partly drawn) [Example 221, (S)-4-[2-(3,4-Dichloro-phenyl)-propyl]-4,5-dihydro-oxazol-2-ylamine] | 0.0022 µM |
| CCC(C[C@H]1COC(N)=N1)c1ccc(Cl)c(Cl)c1 (stereo partly drawn) [Example 222, (S)-4-[2-(3,4-Dichloro-phenyl)-butyl]-4,5-dihydro-oxazol-2-ylamine] | 0.0048 µM |
| CCC(C[C@H]1COC(N)=N1)c1ccccc1F (stereo partly drawn) [Example 223, (S)-4-[2-(2-Fluoro-phenyl)-butyl]-4,5-dihydro-oxazol-2-ylamine] | 0.0059 µM |
| C[C@]1(CCc2ccccc2Cl)COC(N)=N1 [Example 228, (S)-4-[2-(2-Chloro-phenyl)-ethyl]-4-methyl-4,5-dihydro-oxazol-2-ylamine] | 0.004 µM |
| C[C@]1(c2ccc(Br)cc2)COC(N)=N1 [Example 231, (S)-4-(4-Bromo-phenyl)-4-methyl-4,5-dihydro-oxazol-2-ylamine] | 0.0025 µM |
| NC1=N[C@@H](CCc2cccc(Cl)c2)CO1 [Example 232, (S)-4-[2-(3-Chloro-phenyl)-ethyl]-4,5-dihydro-oxazol-2-ylamine] | 0.0006 µM |
| C[C@]1(c2ccc(Cl)c(F)c2)COC(N)=N1 [Example 236, (S)-4-(4-Chloro-3-fluoro-phenyl)-4-methyl-4,5-dihydro-oxazol-2-ylamine] | 0.002 µM |
| NC1=N[C@@H](c2ccc(Cl)cc2C(F)(F)F)CO1 [Example 238, (+)-(S)-4-(4-Chloro-2-trifluoromethyl-phenyl)-4,5-dihydro-oxazol-2-ylamine] | 0.003 µM |
| COc1ccc([C@H]2COC(N)=N2)c(C(F)(F)F)c1 [Example 240, (+)-(S)-4-(4-Methoxy-2-trifluoromethyl-phenyl)-4,5-dihydro-oxazol-2-ylamine] | 0.0032 µM |
| NC1=N[C@@H](c2cc(Cl)c(Cl)cc2C(F)(F)F)CO1 [Example 242, (+)-(S)-4-(4,5-Dichloro-2-trifluoromethyl-phenyl)-4,5-dihydro-oxazol-2-ylamine] | 0.0072 µM |
| NC1=N[C@H](c2cc(Cl)c(Cl)cc2C(F)(F)F)CO1 [Example 243, (−)-(R)-4-(4,5-Dichloro-2-trifluoromethyl-phenyl)-4,5-dihydro-oxazol-2-ylamine] | 0.0094 µM |
| C[C@]1(CCc2ccc(Cl)cc2)COC(N)=N1 [Example 244, (S)-4-[2-(4-Chloro-phenyl)-ethyl]-4-methyl-4,5-dihydro-oxazol-2-ylamine] | 0.0057 µM |
| C[C@]1(CCc2cccc(Cl)c2)COC(N)=N1 [Example 246, (S)-4-[2-(3-Chloro-phenyl)-ethyl]-4-methyl-4,5-dihydro-oxazol-2-ylamine] | 0.0055 µM |
| NC1=N[C@@H](c2ccc(F)cc2C(F)(F)F)CO1 [Example 248, (+)-(S)-4-(4-Fluoro-2-trifluoromethyl-phenyl)-4,5-dihydro-oxazol-2-ylamine] | 0.0029 µM |
